SMILES strings stand for the structures. Where a name gives a salt, the structure may show the parent alone.

With `CS(=O)(=O)NCCC1(CN)CCCCC1.Cl`, the melting point (as a rule, the temperature of the solid-liquid transition) was in the range of 196 to 199 °C.
In the case of `CC(C)CC(CN)Cc1noc(=S)[nH]1.Cl` (stereo not shown) it was 183 to 185 °C.
In the case of `Cl.NCC1(Cc2noc(=S)[nH]2)CCCCC1` it was 210 to 212 °C; in that of `CCCC(C(C)C)C(CN)CC(=O)O` (stereo not shown) (as salt: HCl), 160 to 170 °C.

The values above are taken from US7026505B2, “Method of treating tinnitus” (Warner-Lambert Company, priority 2002, dated 2006).
